Measurements reported in article PMC5078025, “Necrosis-inducing peptide has the beneficial effect on killing tumor cells through neuropilin (NRP-1) targeting” (Oncotarget, 2016).
Bridge positions count the residues as written; N and C are the ends. Ends that are not written are not given here.

Key:
CT26 cells = assay: XTT cell viability / killing activity in CT26 cells; type: cell-based; details: CT26 cells in vitro, TU:MTDs 0 ~ 20 μM, 30 minutes
Protocol: Figure 1 Identification of TU17:MTD as a tumor targeting peptide (A) Schematic diagram of the fusion peptides consisting of the tumor-homing motif, linker, and mitochondrial targeting domain (MTD). (B) Tumors were generated over 2 weeks after s.c. injection of CT26 cells into the backs of BALB/c mice. When tumor volumes reached palpable size, the indicated TU:MTDs (100 μl of 1 mM TU:MTDs) or PBS were administrated i.v. twice or three times. […] Arrows indicate the points of peptide injection. P values < 0.02 (control group vs TU17:MTD at day 5, 6, 7, 8, and 9) (C) HCT116, HeLa, A549, MCF-7, PC3, and BJAB cells were treated with TU17:MTD (0 ~ 20 μM) for 30 minutes, and cell viability was monitored using XTT assays. *P < 0.05 (D) Primary splenocytes and macrophages were treated with TU17:MTD (0 ~ 20 μM) for 30 minutes, and cell viability was monitored by XTT assay. *P < 0.05 (E) CT26 cells were treated with R8:MTD, TU17:MTD, TU17-2:MTD or TU17:MTD^4A (0 ~ 40 μM) for 4 hours, and cell viability was monitored by XTT assay. Results in C to E are expressed as means ± SD (triplicates), and are representative of at least two independent experiments. P values are for experimental groups versus controls and were calculated using Dunnett's t-test. *P < 0.05.
Figure 5 Anti-NRP-1 antibody blocks TU17:MTD-induced necrosis (A) CT26 cells (2 × 10^4 cells/cm^2) were treated with TU17:MTD-FAM (500 nM) peptide or TU17^mut:MTD (500 nM) peptide. […] The viability was measured by using the XTT assay. *P < 0.05, **P < 0.01. […] The percentage of FAM-positive cells (%) were determined (n = over 200 cells). *P < 0.05, ***P < 0.001.
Cells were cultured in 96 well plates (2 × 10^5) overnight and treated with TU:MTDs. Cell viabilities were assessed using a XTT-based colorimetric assay kit, according to the manufacturer's instructions. […]
Supplementary FigureS1: Killing activity of TU:MTDs in CT26 cells. CT26 cells were treated with TU:MTDs (0 ~ 20 μM) for 30 minutes, and cell viability was monitored using XTT assays. […]

BALB/c mice = assay: Toxicity and movement activity after i.v. injection; details: for Movement Activities: BALB/c (around 20 gm) mice, i.v. single dose 75 μl of 1 mM, within 30 minutes; for toxicity by mouse movements: BALB/c mice, i.v. single dose 75 μl of 1 mM per mouse, movements within 30 minutes, observed up to one week
Protocol: To design a MTD peptide anti-cancer drug, the MTD peptide was fused to various known tumor-homing motifs through its N-terminal or C-terminal region, and a linker was introduced between these two motifs to impart flexibility and minimize steric hindrance (Figure 1A, Supplementary Table S1). The MTD peptides fused with tumor-homing motifs (hereafter designated TU:MTDs) were synthesized as linear or cyclic entities using L-amino acids (Supplementary Table S1), and were evaluated for their killing activity using CT26 cells in vitro (Supplementary Figure S1). […] Thus, BALB/c mouse movements were also evaluated within 30 minutes of the intravenous injection of a single dose of 75 μl of 1 mM TU:MTDs per mouse. […] We also searched for a TU:MTD with a potent in vivo effect by observing tumor volumes in three BALB/c mice bearing CT26 adenocarcinoma that were injected with 100 μl of 1 mM TU:MTDs per day for 2 or 3 consecutive days (Figure 1B). […] The tumor-homing motif of TU17:MTD has a “RPARPAR” sequence containing the C-end rule (CendR) element that has known to bind to neuropilin-1 (NRP-1), although the “RPARPAR” sequence is located at the N-terminus of the MTD rather than at the C-terminus. […]
1 mM) were i.v. injected into BALB/c (around 20 gm) mice at a single dose. “Slow” means not moving around in the cage.
“Normal” means normally moving around in the cage. “Toxic” means necrosis in tail vein within 2 ~ 3 days after injection.
Abbreviation: NR; no regression, ND; not determined. […]

Sequence | morphological features of necrosis (CT26 cells) | Movement Activities (BALB/c mice) | toxicity by mouse movements (BALB/c mice)
CNGRCVSGCAGRCGGKLLNLISKLF [TU2:MTD] | induced the typical morphological features of necrosis | Normal | no apparent toxicities
KLLNLISKLFCRGDKRLYDC (disulfide 11-20 (inferred)) [TU11:MTD] | induced the typical morphological features of necrosis | Slow | toxic
